The values that follow come from PubChem BioAssay AID463206 (Broad Institute, 2010).

The structures appear in SMILES notation. Active and inactive are the calls of the source.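 How the source made its calls: active means caspase luminescence falls with dose and the half-maximal concentration AC50 from the fitted curve is at or below a set limit; inconclusive means flat fit at 30 to 70% signal loss, or invalid fit; inactive means AC50 above the limit, or signal rises instead.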 Where only a bound is given, the exact number is not on record here.

The test deals with INS-1E cytokine-induced caspase-3/7, Caspase-Glo luminescence, 48 h. Briefly: suppression of cytokine-driven beta-cell apoptosis – INS-1E rat cells, luminescence, orthogonal assay for beta-cell apoptosis protection project, dose response (AID 463206).
As to `COc1ccc(CCNc2c3ccccc3nc3ccccc23)cc1OC`, the AC50 was 4.3 µM. On to `O=C1N/C(=N\N=C\c2cccnc2)SC1Cc1ccc(SC(F)F)cc1` (configuration not stated), for which the AC50 was > 26 µM (inactive). To `O=C(O)c1ccc(S(=O)(=O)/N=C2\C=C(Nc3ccccc3F)C(=O)c3ccccc32)cc1` belongs > 26 µM (inactive); to `O=C(Nc1nc2ccccc2s1)c1cc(-c2ccccc2)nn1-c1ccccc1`, > 26 µM (inactive); to `CC(=O)c1ccc(NC(=S)NC(C)c2ccc(Cl)cc2Cl)cc1` (configuration not stated), > 26 µM (inactive). For `Cc1cc(N/N=C/c2ccc(F)cc2)nc(-n2nc(C)cc2C)n1`, the AC50 was > 26 µM (inactive). Regarding `CN1/C(=C\C(=S)NC(=O)c2ccc([N+](=O)[O-])cc2)C(C)(C)c2ccccc21`, the AC50 is > 26 µM (inactive). To `CCOC(=O)C1CCN(Cc2ccc(O)c3ncccc23)CC1` belongs > 26 µM (inactive). With `O=C1/C(=N\S(=O)(=O)c2cccs2)C([n+]2cccc(Cc3ccccc3)c2)=C([O-])c2ccccc21` the figure was > 26 µM (inactive); with `COc1cc(NC(=O)COc2cc(O)c3c(c2)OC(C)(C)CC3=O)cc(OC)c1OC`, > 26 µM (inactive); with `O=C(NCC(c1ccco1)N1CCCC1)c1ccc(Cl)c(S(=O)(=O)N2CCc3ccccc32)c1` (configuration not stated), > 26 µM (inactive). For `CCc1ccc(Nc2n[n+](-c3ccccc3)c(-c3c(Cl)cccc3Cl)s2)cc1`, the AC50 is > 26 µM (inactive). With `Cc1ccc2nc(-c3ccc(-c4cccc(Cl)c4)cc3)c(NCc3ccccc3)n2c1` the figure was > 26 µM (inactive); with `C/C(=N\Nc1nc2ccccc2[nH]1)c1ccccn1`, > 26 µM (inactive).

On to `O=C(N/N=C/c1c(O)ccc2ccccc12)c1[nH]ncc1Br`, for which the AC50 was > 26 µM (inactive). To `COc1ccccc1C(NC(C)=O)c1cc(Cl)c2cccnc2c1O` (configuration not stated) belongs > 26 µM (inactive); to `NC(=NCCCCCCN=C(N)/N=C(\N)Nc1ccc(Cl)cc1)/N=C(\N)Nc1ccc(Cl)cc1`, > 26 µM (inactive); to `Cc1cc(C)n(-c2nc(Nc3ccccc3C(F)(F)F)nc(-n3nc(C)cc3C)n2)n1`, > 26 µM (inactive). To `C/C(=N\N1C(=O)c2ccccc2NC1c1ccccc1)c1ccccc1O` (configuration not stated) belongs > 26 µM (inactive); to `Nc1c(C(=O)Nc2ccc(S(=O)(=O)N3CCCC3)cc2)sc2nc3ccc(OC(F)(F)F)cc3cc12`, > 26 µM (inactive); to `Cc1ccccc1NC1=C/C(=N\S(=O)(=O)c2cccs2)c2ccccc2C1=O`, > 26 µM (inactive). Consider `COc1ccc(OC)c(NC(=O)CN(Cc2ccc(F)cc2)C2CCCCC2)c1`, for which the AC50 was > 26 µM (inactive).

In the case of `CCOc1ccc(N=Cc2c(C)[nH]n(-c3nc4ccccc4[nH]3)c2=O)cc1`, the AC50 is > 26 µM (inactive). With `O=C(Nc1ccc(S(=O)(=O)N2CCOCC2)cc1)c1ccc([N+](=O)[O-])s1` the figure was > 26 µM (inactive); with `COc1ccc(C)cc1NS(=O)(=O)c1ccc(NC(=O)CN(c2cc([N+](=O)[O-])ccc2C)S(C)(=O)=O)cc1`, > 26 µM (inactive); with `COc1cc2sc(-c3ccccc3OC)c(-c3ccc(OCCN4CCCCC4)cc3)c2cc1OC`, 16 µM. As for `CCCCCCOC(=O)C[N+](C)(C)CCOC1CC2CCC1(C)C2(C)C` (configuration not stated), the AC50 was > 26 µM (inactive). To `CCOC(=O)c1cnc(-n2nc(C)cc2C)nc1NNc1cc(C)nc(-c2ccccc2)n1` belongs > 26 µM (inactive); to `CCCCCc1nc2c(c(=O)c3ccccc3n2C)c(=O)n1C1CCCCCC1`, > 26 µM (inactive); to `Cc1ccc(C(=O)NC(=S)/C=C2\N(C)c3ccccc3C2(C)C)cc1`, > 26 µM (inactive). With `C=CCn1cc(/C=C/c2cc[n+](C)cc2)c2ccccc21` the figure was > 26 µM (inactive). To `Cc1ccc(-c2csc(NC(=O)c3c(C)noc3C)n2)s1` belongs > 26 µM (inactive).

As a reminder, the AC50 is the midpoint of the concentration-response curve, whichever way the signal moves.
